This passage reports Activity and Ratio results from ChEMBL document CHEMBL1759948, “Use of the NEO strategy (Nucleophilic addition/Epoxide Opening) for the synthesis of a new C-galactoside ester analogue of KRN 7000” (2011).

Each structure is given as a SMILES string.

Common to all, as to format: functional
The species named for test [1] is Mus musculus. Description: Induction of IFN-gamma production in BALB/c mouse after 6 hrs by ELISA. (In general: In an ELISA, binding on a coated surface is turned into a signal by an enzyme label.)
The species named for test [2] is Mus musculus. Description: Ratio of induction of IFN-gamma production to induction of IL-4 production in BALB/c mouse after 6 hrs.
Test [3] is filed under the species Mus musculus. In words: Induction of IL-4 production in BALB/c mouse after 6 hrs by ELISA.

Consider `CCCCCCCCCCCCCCCCCCCCCCCCCC(=O)N[C@@H](CO[C@H]1O[C@H](CO)[C@H](O)[C@H](O)[C@H]1O)[C@H](O)[C@H](O)CCCCCCCCCCCCCC` [RGI-7000], for which the Activity in the test filed under Mus musculus [1] came to 12145 pg/mL; in the test filed under Mus musculus [3], 1450 pg/mL. The Ratio in the test filed under Mus musculus [2] was 8.35.

For the compound `CCCCCCCCCCCCCCCCCCCCCCCCCC(=O)O[C@H](CCCCCCCCCCCCCC)[C@@H](O)[C@@H](O)CC[C@H]1O[C@H](CO)[C@H](O)[C@H](O)[C@H]1O`, the Activity in the test listed under Mus musculus [1] is 90 pg/mL; in the test listed under Mus musculus [3], 83 pg/mL. Moreover, the Ratio in the test filed under Mus musculus [2] was 1.37.
